Measurements from patent US20250197428A1, “INHIBITORS OF KIF18A AND USES THEREOF” (ACCENT THERAPEUTICS, INC., priority 2022, published 2025).
Read-outs that look alike come from different tables or passages of the source.

How the values were obtained:
[1] = In vivo pharmacokinetic evaluation in mouse; parameters: species or system female balb/c nude mice
[2] = test system: human megakaryocyte (CFU-MK) progenitors from human bone marrow mononuclear cells; test: Human megakaryocyte progenitor colony formation assay (CFU-MK); format: cell-based; conditions: 336 h, 14 days culture, adjusted for binding to assay buffer, read-out: Free-fraction adjusted CFU-MK IC50
KIF18A = KIF18A (Homo sapiens (Human), UniProt Q8NI77); test: KIF18A Biochemical Assay (ATPase, ADP-Glo)
KIF18A, sequence (Q8NI77 1-367): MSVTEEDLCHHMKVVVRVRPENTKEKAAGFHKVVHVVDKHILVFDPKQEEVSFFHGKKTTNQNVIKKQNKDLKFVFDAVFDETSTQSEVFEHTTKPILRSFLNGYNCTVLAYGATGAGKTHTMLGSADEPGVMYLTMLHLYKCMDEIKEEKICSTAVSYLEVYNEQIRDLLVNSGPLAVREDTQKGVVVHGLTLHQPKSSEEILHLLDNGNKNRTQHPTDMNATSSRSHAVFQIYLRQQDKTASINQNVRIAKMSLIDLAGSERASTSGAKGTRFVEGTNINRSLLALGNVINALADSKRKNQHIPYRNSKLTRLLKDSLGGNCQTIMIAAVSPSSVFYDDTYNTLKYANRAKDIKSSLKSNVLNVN
KIF18A, sequence (P02550 whole entry partner): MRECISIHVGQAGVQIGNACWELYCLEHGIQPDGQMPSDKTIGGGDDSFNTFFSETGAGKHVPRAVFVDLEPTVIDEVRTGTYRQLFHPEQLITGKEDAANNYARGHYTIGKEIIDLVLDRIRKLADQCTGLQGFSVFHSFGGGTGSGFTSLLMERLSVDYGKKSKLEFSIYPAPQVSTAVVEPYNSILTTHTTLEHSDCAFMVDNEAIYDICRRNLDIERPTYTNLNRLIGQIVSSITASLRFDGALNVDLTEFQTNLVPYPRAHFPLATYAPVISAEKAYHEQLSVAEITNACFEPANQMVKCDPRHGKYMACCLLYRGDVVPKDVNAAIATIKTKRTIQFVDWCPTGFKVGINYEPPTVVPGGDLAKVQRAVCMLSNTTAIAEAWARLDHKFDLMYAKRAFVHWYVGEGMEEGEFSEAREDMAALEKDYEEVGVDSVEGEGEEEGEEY
KIF18A, sequence (P02554 whole entry partner): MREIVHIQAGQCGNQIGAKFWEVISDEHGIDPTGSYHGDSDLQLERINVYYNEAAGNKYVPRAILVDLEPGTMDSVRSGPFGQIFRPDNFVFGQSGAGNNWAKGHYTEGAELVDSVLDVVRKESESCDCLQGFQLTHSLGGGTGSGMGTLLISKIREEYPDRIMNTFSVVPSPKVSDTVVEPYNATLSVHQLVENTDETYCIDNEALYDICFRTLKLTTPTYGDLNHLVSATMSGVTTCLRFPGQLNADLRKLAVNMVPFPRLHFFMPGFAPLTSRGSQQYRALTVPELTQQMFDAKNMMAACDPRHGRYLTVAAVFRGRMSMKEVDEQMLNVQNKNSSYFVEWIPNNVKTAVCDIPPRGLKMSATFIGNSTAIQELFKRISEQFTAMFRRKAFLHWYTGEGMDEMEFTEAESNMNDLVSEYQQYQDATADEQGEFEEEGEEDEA

OVCAR-3 cells = test: In vitro anti-proliferative activity assay in cancer cell line OVCAR-3 (CellTiter-Glo, 4- or 7-day); format: cell-based; conditions: Homo sapiens, OVCAR-3, 96 h, 4-day assay; read-out: OVCAR-3 cellular antiproliferation assay IC50
OVCAR-3 xenografts = test: 28 day in vivo efficacy in OVCAR-3 xenografts; parameters: species or system female NOD SCID mice; conditions: day 28, 30 mg/kg once daily, oral
Description: Experiments were performed in female NOD SCID mice (GenPharmatech Co.). Animals were allowed to acclimate for 7 days before the study. The general health of the animals were evaluated by a veterinarian, and complete health checks were performed prior to the study. General procedures for animal care and housing were in accordance with the standard, Commission on Life Sciences, National Research Council, Standard Operating Procedures (SOPs) of Pharmaron, Inc. The mice were kept in laminar flow rooms at constant temperature and humidity with 3-5 mice in each cage. Animals were housed in polycarbonate cages which had dimensions of 300×180×150 mm^3 and in an environmentally monitored, well-ventilated room maintained at a temperature of 23±3° C. and a relative humidity of 40%-70%. Fluorescent lighting provided illumination approximately 12 hours per day. Animals had free access to irradiation sterilized dry granule food during the entire study period except for time periods specified by the protocol, as well as sterile drinking water in a bottle that was available ad libitum during the quarantine and study periods.
The OVCAR-3 (ATCC) tumor cell lines were maintained in vitro as a monolayer in RPMI 1640 medium supplemented with 20% heat inactivated FBS, at 37° C. in an atmosphere of 5% CO2 in air. The tumor cells were sub-cultured, not exceeding 4-5 passages, and cells growing in an exponential growth phase were harvested and counted for tumor inoculation. Each mouse was inoculated subcutaneously on the right flank with OVCAR-3 tumor cells (2×10^7) in 0.2 mL of RPMI-1640 with Matrigel (1:1) for model development.
Treatment was started when the mean tumor size reached approximately 150-200 mm^3, at which time the mice were randomized into treatment groups such that the average starting tumor size is similar for each treatment group. Animals were then treated with vehicle or indicated mg/kg (10-100) of compound at a given frequency (e.g., BID, QD, 4 days on treatment followed by 3 days off treatment) by oral gavage at a final dosing volume of 10 mL/kg.
The measurement of tumor size was conducted with a caliper and recorded twice per […] week. The tumor volume (TV) (mm^3) was estimated using the formula: TV=a×b^2/2, where “a” and “b” are long and short diameters of a tumor, respectively.
The TVs were used for calculation of the tumor growth inhibition and tumor growth delay. For the tumor growth inhibition (TGI), the value using the formula: […]
The “TVfinal” and “TVinitial” are the mean tumor volumes on the final day and initial day, respectively.
All statistical tests was conducted on GraphPad, and the level of significance was set at 5% or P<0.05. The group means and standard deviations were calculated for all measurement parameters. Two-way RM ANOVA followed by Tukeys post hoc comparisons of the means was applied among groups.
Additionally, after compound treatment, the animals were observed an additional 28 days without compound treatment.
The initial treatment period with Example 1 was 28 days, after which overall efficacy and tolerability were evaluated based on tumor volume and body weight changes observed during the treatment period (FIG. 2a and FIG. 2b).
The initial treatment period with Example 1 was 28 days, after which overall efficacy and tolerability were evaluated based on tumor volume and body weight changes observed during the treatment period (FIG. 3a and FIG. 3b).

[3] = Bone marrow concentration in 28 day OVCAR-3 xenograft study; format: in vivo, mice; conditions: NOD SCID, mouse, 28 day study; for concentration at 6 h: read-out: Bone marrow concentration at 6 h post-last dose; for concentration at 24 h: read-out: Bone marrow concentration at 24 h post-last dose
Description: On Day 28, tissues were collected from animals. About 30-60 μL of whole blood was collected into tubes containing EDTA anticoagulant, and plasma was harvested by centrifugation at 4,000 g×5 min and stored at −80° C. until analysis. Plasma analysis followed the same protocol as for the Day 1 plasma analysis. Additionally, the femurs of the mice were cut and put in pre-weighed tubes. The bone marrow was harvested by centriguation at 8,000 g×15 min. Then, the total weight of both the bone marrow and the tube was recorded. The bone marrow was stored at −80° C. until analysis.
Samples were collected from animals 6 h after the last dose of compound and at 24 h after the last dose of compound.

**Q.** For `Cc1cc(NC(=O)c2ccc(NS(=O)(=O)CCO)cc2N2CC[C@@]3(C(F)F)C[C@H]3C2)nc(N2CCC(F)(F)CC2)n1` (single isomer, unassigned) [Example 29b], which “IV Clearance” value ([1]; 3 mg/kg IV) is on record?
**A.** 3.3 mL/ming/kg

**Q.** What about the Vd ([1]; female, balb/c nude, plasma, 3 mg/kg IV, read-out: IV Vss) of the same compound?
**A.** 0.97 L/kg

**Q.** What about the Cmax ([1]; female, balb/c nude, plasma, 10 mg/kg PO) of the same compound?
**A.** 4700 ng/mL

**Q.** And the half-life ([1]; female, balb/c nude, plasma, 10 mg/kg PO, read-out: PO T1/2 (converted))?
**A.** 3.7 h

**Q.** And the IC50 [2]?
**A.** 110 nM

**Q.** What about the IC50 (KIF18A) of the same compound?
**A.** < 100 nM

**Q.** What about the IC50 (OVCAR-3 cells) of the same compound?
**A.** < 100 nM

**Q.** And the “% T/C” value (OVCAR-3 xenografts)?
**A.** 1%

**Q.** And the “% TGI” value (OVCAR-3 xenografts)?
**A.** 99%

**Q.** And the concentration at 6 h ([3]; 10 mg/kg QD oral)?
**A.** 2800 ng/g

**Q.** And the concentration at 24 h ([3]; 10 mg/kg QD oral)?
**A.** 210 ng/g

**Q.** And the concentration at 6 h ([3]; 30 mg/kg QD oral)?
**A.** 10500 ng/g

**Q.** What about the concentration at 24 h ([3]; 30 mg/kg QD oral) of the same compound?
**A.** 900 ng/g
